In the RepoRT retention time repository one finds LC retention time data, which are given here for 80 compounds.

This data set in a line: HILIC, Waters ACQUITY UPLC BEH Amide, 100 × 2.1 mm, 1.7 µm; A: water + 0.125% formic acid + 10 mM ammonium formate; B: 5% water + 95% acetonitrile + 0.125% formic acid + 10 mM ammonium formate; gradient (min/%B) 0/100 2/100 7.7/70 9.5/40 10.25/30 12.75/100 17/100. Conditions: stereoisomer not certain.
For `CCN(CC)C(=S)SSC(=S)N(CC)CC` [Disulfiram], the LC retention time worked out at 0.93 min.
For `CC(=O)OC12COC1CC(O)C1(C)C(=O)C(O)C3=C(C)C(OC(=O)C(O)C(NC(=O)OC(C)(C)C)c4ccccc4)CC(O)(C(OC(=O)c4ccccc4)C21)C3(C)C` (stereo not given) [Docetaxel], the LC retention time was 1.34 min.
Regarding `CN(CCOc1ccc(NS(C)(=O)=O)cc1)CCc1ccc(NS(C)(=O)=O)cc1` [Dofetilide], the LC retention time came to 3.38 min.
Next, `O=C(OC1CC2CC3CC(C1)N2CC3=O)c1c[nH]c2ccccc12` (stereo not given) [Dolasetron]: 1.9 min.
Next, `COc1cc2c(cc1OC)C(=O)C(CC1CCN(Cc3ccccc3)CC1)C2` (stereo not given) [Donepezil]: 2.44 min.
For the compound `NCCc1ccc(O)c(O)c1` [Dopamine], the LC retention time is 6.4 min.
On to `CCN1CC(CCN2CCOCC2)C(c2ccccc2)(c2ccccc2)C1=O` (stereo not given) [Doxapram], for which the LC retention time is 1.64 min.
For `CN(C)CCC=C1c2ccccc2COc2ccccc21` [Doxepin], the LC retention time was 2.26 min.
Under `CN(C)CCOC(C)(c1ccccc1)c1ccccn1` (stereo not given) [Doxylamine] stands 2.45 min.
Consider `O=C(CCCN1CC=C(n2c(=O)[nH]c3ccccc32)CC1)c1ccc(F)cc1` [Droperidol], for which the LC retention time is 3.48 min.
Next, `CNCCC(Oc1cccc2ccccc12)c1cccs1` (stereo not given) [Duloxetine]: 2.6 min; `CC=C1N(C)C(C)CC1(c1ccccc1)c1ccccc1` (stereo not given) [EDDP]: 1.9 min.
Next, `COC(=O)C1C(O)CC2CCC1N2C` (stereo not given) [Ecgonine methylester]: 4.18 min; `CN1C2CCC1C(C(=O)O)C(O)C2` (stereo not given) [Ecgonine]: 7.61 min; `O=C1Nc2ccc(Cl)cc2C(C#CC2CC2)(C(F)(F)F)O1` (stereo not given) [Efavirenz]: 0.98 min.
For `CC(NC(CCc1ccccc1)C(=O)O)C(=O)N1CCCC1C(=O)O` (stereo not given) [Enalaprilat], the LC retention time came out at 7.07 min.
Under `CCN1CCN(c2cc3c(cc2F)c(=O)c(C(=O)O)cn3C2CC2)CC1` [Enrofloxacin] stands 3.31 min; under `Oc1cc(O)c2c(c1)OC(c1cc(O)c(O)c(O)c1)C(O)C2` (stereo not given) [Epigallocatechin], 10.2 min.
`Oc1ccc(C2COc3cc(O)ccc3C2)cc1` (stereo not given) [Equol]: the LC retention time was determined as 1.19 min.
For `CC(C)C(C)C=CC(C)C1CCC2C3=CC=C4CC(O)CCC4(C)C3CCC21C` (stereo not given) [Ergosterol], the LC retention time came to 1.43 min.
As to `C[N+](C)(C)C(Cc1c[nH]c(=S)[nH]1)C(=O)[O-]` (stereo not given) [Ergothioneine], the LC retention time was 7.74 min.
As to `CCCCCCCCC=CCCCCCCCCCCCC(N)=O` [Erucamide], the LC retention time amounted to 1.06 min.
As to `COC(=O)CCc1ccc(OCC(O)CNC(C)C)cc1` (stereo not given) [Esmolol], the LC retention time is 3.13 min.
Under `NCCO` [Ethanolamine] stands 7.15 min.
Next, `CCCC(=O)OCC` [Ethylbutanoate]: 4.88 min.
Next, `C#CC1(O)CCC2C3CCc4cc(O)ccc4C3CCC21C` (stereo not given) [Ethynylestradiol]: 0.99 min.
On to `CCOC(=O)c1cncn1C(C)c1ccccc1` (stereo not given) [Etomidate], for which the LC retention time is 0.98 min.
Under `COc1cc(C2c3cc4c(cc3C(OC3OC5COC(C)OC5C(O)C3O)C3COC(=O)C23)OCO4)cc(OC)c1O` (stereo not given) [Etoposide] stands 1.3 min; under `C=C1CC2C(CCC3(C)C(=O)CCC23)C2(C)C=CC(=O)C=C12` (stereo not given) [Exemestane], 0.98 min.
For `O=C1C(CCC(O)c2ccc(F)cc2)C(c2ccc(O)cc2)N1c1ccc(F)cc1` (stereo not given) [Ezetimibe], the LC retention time came to 1.03 min.
Under `CC(=O)OCC(CCn1cnc2cnc(N)nc21)COC(C)=O` [Famciclovir] stands 1.38 min; under `NC(N)=Nc1nc(CSCCC(N)=NS(N)(=O)=O)cs1` [Famotidine], 5.59 min.
Turning to `NC(=O)OCC(COC(N)=O)c1ccccc1` [Felbamate], the LC retention time was 1.2 min.
In the case of `CCNC(C)Cc1cccc(C(F)(F)F)c1` (stereo not given) [Fenfluramine], the LC retention time worked out at 2.33 min.
On to `Oc1ccc(C2CNCCc3c2cc(O)c(O)c3Cl)cc1` (stereo not given) [Fenoldopam], for which the LC retention time was 5.68 min.
On to `CCOC(=O)C(C)Oc1ccc(Oc2nc3ccc(Cl)cc3o2)cc1` (stereo not given) [Fenoxaprop-P-ethyl], for which the LC retention time was 1.01 min.
Next, `COc1cc(/C=C/C(=O)O)ccc1O` [Ferulic acid]: 1.36 min; `CC(C)(C)NC(=O)C1CCC2C3CCC4NC(=O)C=CC4(C)C3CCC12C` (stereo not given) [Finasteride]: 1.17 min; `COC(=O)Nc1nc2ccc(C(=O)c3ccc(F)cc3)cc2[nH]1` [Flubendazole]: 1.16 min.
Turning to `CCOC(=O)c1ncn2c1CN(C)C(=O)c1cc(F)ccc1-2` [Flumazenil], the LC retention time amounted to 1.08 min.
In the case of `CN1C(=O)CN=C(c2ccccc2F)c2cc([N+](=O)[O-])ccc21` [Flunitrazepam], the LC retention time was found to be 1.05 min.
On to `c1ccc2c(c1)Cc1ccccc1-2` [Fluorene], for which the LC retention time was 6.66 min.
Take `CN1CCN(C2=Nc3cc(F)ccc3Cc3ccccc32)CC1` [Fluperlapine]: the LC retention time was determined as 2.3 min.
Turning to `OCCN1CCN(CCCN2c3ccccc3Sc3ccc(C(F)(F)F)cc32)CC1` [Fluphenazine], the LC retention time worked out at 2.74 min.
Consider `CCN(CC)CCN1C(=O)CN=C(c2ccccc2F)c2cc(Cl)ccc21` [Flurazepam], for which the LC retention time stood at 2.41 min.
With `COCCCCC(=NOCCN)c1ccc(C(F)(F)F)cc1` [Fluvoxamine], the LC retention time worked out at 2.93 min.
Turning to `Nc1nc2c(c(=O)[nH]1)N(C=O)C(CNc1ccc(C(=O)NC(CCC(=O)O)C(=O)O)cc1)CN2` (stereo not given) [Folinic acid], the LC retention time is 7.92 min.
Under `COc1ccc(-c2coc3cc(O)ccc3c2=O)cc1` [Formononetine] stands 1.18 min; under `COc1ccc(CC(C)NCC(O)c2ccc(O)c(NC=O)c2)cc1` (stereo not given) [Formoterol], 5.18 min; under `CC(=O)OC1CC(C)(C)C(=C=CC(C)=CC=CC(C)=CC=CC=C(C)C=CC=C(C)C(=O)CC23OC2(C)CC(O)CC3(C)C)C(C)(O)C1` (stereo not given) [Fucoxanthin], 1.07 min.
For the compound `CCOC(=O)c1ccc(OC(=O)CCCCCN=C(N)N)cc1` [Gabexate], the LC retention time is 3.45 min.
Regarding `NC1C(O)OC(CO)C(O)C1O` (stereo not given) [Galactosamine], the LC retention time came to 8.44 min.
Under `COc1ccc2c3c1OC1CC(O)C=CC31CCN(C)C2` (stereo not given) [Galanthamine] stands 4.62 min; under `COC(=O)C1=COC(OC2OC(CO)C(O)C(O)C2O)C2C(CO)=CCC12` (stereo not given) [Geniposide], 4.53 min.
Under `O=C(O)c1cc(O)ccc1O` [Gentisinic acid] stands 3.18 min; under `CC(C)=CCCC(C)=CC(=O)O` [Geranic acid], 1.3 min; under `CCC1=C(C)CN(C(=O)NCCc2ccc(S(=O)(=O)NC(=O)NC3CCC(C)CC3)cc2)C1=O` (stereo not given) [Glimepiride], 1.05 min.
With `NC(N)=NCCCC(NC(=O)C(N)CCC(=O)O)C(=O)O` (stereo not given) [Glu-Arg], the LC retention time was 9.9 min.
Next, `NC(=O)CCC(NC(=O)C(N)CCC(=O)O)C(=O)O` (stereo not given) [Glu-Gln]: 9.6 min; `NCCCCC(NC(=O)C(N)CCC(=O)O)C(=O)O` (stereo not given) [Glu-Lys]: 9.9 min; `NC(CCC(=O)O)C(=O)NC(Cc1ccccc1)C(=O)O` (stereo not given) [Glu-Phe]: 8.2 min.
Next, `CC(O)C(NC(=O)C(N)CCC(=O)O)C(=O)O` (stereo not given) [Glu-Thr]: 9.44 min; `CC(C)C(NC(=O)C(N)CCC(=O)O)C(=O)NC(Cc1ccccc1)C(=O)O` (stereo not drawn) [Glu-Val-Phe]: 7.66 min.
For the compound `O=C1OC(CO)C(O)C(O)C1O` (stereo not given) [Gluconolactone], the LC retention time was 8.15 min.
Under `CS(=O)CCCCC(=NOS(=O)(=O)O)SC1OC(CO)C(O)C(O)C1O` (stereo not given) [Glucoraphanin] stands 7.37 min.
Under `NC1C(O)OC(COP(=O)(O)O)C(O)C1O` (stereo not given) [Glucosamine-6-phosphate] stands 10.1 min; under `O=P(O)(O)OC1OC(CO)C(O)C(O)C1O` (stereo not given) [Glucose-1-phosphate], 9.61 min.
As for `O=P(O)(O)OCC1OC(O)C(O)C(O)C1O` (stereo not given) [Glucose-6-phosphate], the LC retention time came to 9.86 min.
Consider `OCC1OC(O)C(O)C(O)C1O` (stereo not given) [Glucose], for which the LC retention time was determined as 1.84 min.
Next, `NC(CCC(=O)O)C(=O)O` (stereo not given) [Glutamic acid]: 8.85 min.
Consider `NC(CCC(=O)NC(CSSCC(NC(=O)CCC(N)C(=O)O)C(=O)NCC(=O)O)C(=O)NCC(=O)O)C(=O)O` (stereo not given) [Glutathione (oxidized)], for which the LC retention time stood at 10.2 min.
Next, `NC(CCC(=O)NC(CS)C(=O)NCC(=O)O)C(=O)O` (stereo not given) [Glutathione (reduced)]: 9.07 min; `NCC(=O)NCC(=O)NCC(=O)O` [Gly-Gly-Gly]: 9.18 min.
Regarding `CCC(C)C(NC(=O)CN)C(=O)O` (stereo not given) [Gly-Ile], the LC retention time worked out at 7.67 min.
Under `[NH3+]CC(=O)N1CCCC1C(=O)[O-]` (stereo not given) [Gly-Pro] stands 8.62 min.
In the case of `CC(NC(=O)C(Cc1ccc(O)cc1)NC(=O)CN)C(=O)O` (stereo not drawn) [Gly-Tyr-Ala], the LC retention time came out at 7.89 min.
Turning to `NCC(=O)NC(Cc1ccc(O)cc1)C(=O)O` (stereo not given) [Gly-Tyr], the LC retention time amounted to 8.07 min.
As to `CC(C)C(NC(=O)CN)C(=O)O` (stereo not given) [Gly-val], the LC retention time was found to be 8.05 min.
Under `C[N+](C)(C)CCOP(=O)([O-])OCC(O)CO` (stereo not given) [Glycerophosphocholine] stands 8.67 min; under `NCC(=O)O` [Glycine], 8.33 min.
